Reference: the supplement of paper PMC10307832

Legend:
Test in all cases: relative viability (nuclei count vs DMSO), 5 days (fraction); higher = more cells survive
[1] = system: 201T
Outline: (§1)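 Lung cancer cell lines in 1536-well plates got either a single drug or a fixed anchor-drug dose together with five library-drug doses (not always all listed) in √10 steps, by pin tool, on the day after seeding. Nuclei were counted after 5 days, and relative viability is the treated-to-vehicle ratio of nuclei counts. Values are medians of duplicate plates.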

[2] = system: ABC-1
Outline: as §1

[3] = system: BEN
Outline: as §1

[4] = system: CAL-12T
Outline: as §1

[5] = system: COR-L 105
Outline: as §1

[6] = system: COR-L23
Outline: as §1

[7] = system: EKVX
Outline: as §1

[8] = system: HARA
Outline: as §1

[9] = system: HCC-366
Outline: as §1

[10] = system: LK-2
Outline: as §1

[11] = system: LU99A
Outline: as §1

[12] = system: NCI-H1437
Outline: as §1

[13] = system: NCI-H1650
Outline: as §1

[14] = system: NCI-H1666
Outline: as §1

[15] = system: NCI-H2009
Outline: as §1

[16] = system: NCI-H2170
Outline: as §1

[17] = system: NCI-H3122
Outline: as §1

[18] = system: NCI-H441
Outline: as §1

[19] = system: NCI-H661
Outline: as §1

[20] = system: NCI-H727
Outline: as §1

[21] = system: NCI-H838
Outline: as §1

[22] = system: PC-14
Outline: as §1

[23] = system: SW 900
Outline: as §1

## Oc1nc(-c2ccc(C(F)(F)F)cc2)nc2c1CSCC2 [XAV939] + COc1cc2c(Oc3ccc(NC(=O)C4(C(=O)Nc5ccc(F)cc5)CC4)cc3F)ccnc2cc1OCCCN1CCOCC1 [Foretinib] (partner 0.25 µM)
[1]; first compound 0.08 µM
  relative viability: 0.88
[1]; first compound 0.253 µM
  relative viability: 0.705
[1]; first compound 0.8 µM
  relative viability: 0.861
[1]; first compound 2.53 µM
  relative viability: 0.746
[2]; first compound 0.08 µM
  relative viability: 1.16
[2]; first compound 0.253 µM
  relative viability: 0.732
[2]; first compound 0.8 µM
  relative viability: 0.935
[2]; first compound 2.53 µM
  relative viability: 0.635
[3]; first compound 0.08 µM
  relative viability: 0.71
[3]; first compound 0.253 µM
  relative viability: 0.631
[3]; first compound 0.8 µM
  relative viability: 0.577
[3]; first compound 2.53 µM
  relative viability: 0.546
[4]; first compound 0.08 µM
  relative viability: 1.06
[4]; first compound 0.253 µM
  relative viability: 1.06
[4]; first compound 0.8 µM
  relative viability: 1.15
[4]; first compound 2.53 µM
  relative viability: 1.09
[5]; first compound 0.08 µM
  relative viability: 1.17
[5]; first compound 0.253 µM
  relative viability: 1.06
[5]; first compound 0.8 µM
  relative viability: 1.14
[5]; first compound 2.53 µM
  relative viability: 0.964
[6]; first compound 0.08 µM
  relative viability: 1.13
[6]; first compound 0.253 µM
  relative viability: 0.96
[6]; first compound 0.8 µM
  relative viability: 0.948
[6]; first compound 2.53 µM
  relative viability: 0.903
[7]; first compound 0.08 µM
  relative viability: 0.876
[7]; first compound 0.253 µM
  relative viability: 0.628
[7]; first compound 0.8 µM
  relative viability: 0.675
[7]; first compound 2.53 µM
  relative viability: 0.793
[8]; first compound 0.08 µM
  relative viability: 1.03
[8]; first compound 0.253 µM
  relative viability: 0.79
[8]; first compound 0.8 µM
  relative viability: 0.248
[8]; first compound 2.53 µM
  relative viability: 0.678
[9]; first compound 0.08 µM
  relative viability: 0.91
[9]; first compound 0.253 µM
  relative viability: 0.877
[9]; first compound 0.8 µM
  relative viability: 0.933
[9]; first compound 2.53 µM
  relative viability: 0.941
[10]; first compound 0.08 µM
  relative viability: 1.96
[10]; first compound 0.253 µM
  relative viability: 1.19
[10]; first compound 0.8 µM
  relative viability: 1.08
[10]; first compound 2.53 µM
  relative viability: 1.13
[11]; first compound 0.08 µM
  relative viability: 0.794
[11]; first compound 0.253 µM
  relative viability: 0.815
[11]; first compound 0.8 µM
  relative viability: 0.744
[11]; first compound 2.53 µM
  relative viability: 0.724
[12]; first compound 0.08 µM
  relative viability: 1.3
[12]; first compound 0.253 µM
  relative viability: 1.18
[12]; first compound 0.8 µM
  relative viability: 1.21
[12]; first compound 2.53 µM
  relative viability: 0.989
[13]; first compound 0.08 µM
  relative viability: 1.16
[13]; first compound 0.253 µM
  relative viability: 1.25
[13]; first compound 0.8 µM
  relative viability: 1.09
[13]; first compound 2.53 µM
  relative viability: 0.625
[14]; first compound 0.08 µM
  relative viability: 0.99
[14]; first compound 0.253 µM
  relative viability: 0.919
[14]; first compound 0.8 µM
  relative viability: 0.908
[14]; first compound 2.53 µM
  relative viability: 0.952
[15]; first compound 0.08 µM
  relative viability: 1.32
[15]; first compound 0.253 µM
  relative viability: 1.21
[15]; first compound 0.8 µM
  relative viability: 1.18
[15]; first compound 2.53 µM
  relative viability: 1.16
[16]; first compound 0.08 µM
  relative viability: 1.03
[16]; first compound 0.253 µM
  relative viability: 1.01
[16]; first compound 0.8 µM
  relative viability: 0.979
[16]; first compound 2.53 µM
  relative viability: 0.864
[17]; first compound 0.08 µM
  relative viability: 0.926
[17]; first compound 0.253 µM
  relative viability: 0.918
[17]; first compound 0.8 µM
  relative viability: 0.942
[17]; first compound 2.53 µM
  relative viability: 0.909
[18]; first compound 0.08 µM
  relative viability: 1.15
[18]; first compound 0.253 µM
  relative viability: 0.891
[18]; first compound 0.8 µM
  relative viability: 1.19
[18]; first compound 2.53 µM
  relative viability: 1.02
[19]; first compound 0.08 µM
  relative viability: 1.01
[19]; first compound 0.253 µM
  relative viability: 0.991
[19]; first compound 0.8 µM
  relative viability: 0.993
[19]; first compound 2.53 µM
  relative viability: 0.929
[20]; first compound 0.08 µM
  relative viability: 0.997
[20]; first compound 0.253 µM
  relative viability: 0.774
[20]; first compound 0.8 µM
  relative viability: 0.821
[20]; first compound 2.53 µM
  relative viability: 0.928
[21]; first compound 0.08 µM
  relative viability: 1.01
[21]; first compound 0.253 µM
  relative viability: 0.957
[21]; first compound 0.8 µM
  relative viability: 0.931
[21]; first compound 2.53 µM
  relative viability: 0.575
[22]; first compound 0.08 µM
  relative viability: 0.945
[22]; first compound 0.253 µM
  relative viability: 0.869
[22]; first compound 0.8 µM
  relative viability: 0.885
[22]; first compound 2.53 µM
  relative viability: 0.905
[23]; first compound 0.08 µM
  relative viability: 0.848
[23]; first compound 0.253 µM
  relative viability: 0.765
[23]; first compound 0.8 µM
  relative viability: 0.767
[23]; first compound 2.53 µM
  relative viability: 0.82
